Measured values taken from the RepoRT retention time repository.

Legend:
Settings in all cases: stereoisomer not certain
[1] = RP, Waters ACQUITY UPLC HSS T3, 0.4 mL/min; A: water + 0.01% formic acid; B: 50% water + 50% acetonitrile + 0.01% formic acid; gradient (min/%B) 0/0 0.5/0 9/30 10/50 15/100 16/100 17/0 25/0
[2] = HILIC, Waters Atlantis Premier BEH Z-HILIC, 100 × 2.1 mm, 1.7 µm, 40 °C, 0.15 mL/min, estimated dead time 1.5 min; A: water + 20 mM ammonium carbonate + 5 µM medronic acid; B: 10% water + 90% acetonitrile + 2 mM ammonium carbonate + 0.5 µM medronic acid; gradient (min/%B) 0/95 18/50 18.1/20 21.5/20 22/95 23.5/95 25.5/95
[3] = HILIC, Waters Atlantis Premier BEH Z-HILIC, 100 × 2.1 mm, 1.7 µm, 40 °C, 0.15 mL/min, estimated dead time 1.5 min; A: water + 20 mM ammonium carbonate + 5 µM medronic acid; B: 10% water + 90% acetonitrile + 2 mM ammonium carbonate + 0.5 µM medronic acid; gradient (min/%B) 0/97 18/55 18.1/20 21.5/20 22/97 23.5/97 25.5/97
[4] = RP, Waters ACQUITY UPLC BEH C18, 100 × 2.1 mm, 1.7 µm, 35 °C, 0.25 mL/min, estimated dead time 0.88 min; A: water + 0.1% acetic acid, pH 3; B: acetonitrile; gradient (min/%B) 0/10 1/10 2.5/15 4/22 6/38 9/65 12/80 16/100 19/100
[5] = RP, Waters ACQUITY UPLC BEH C18, 100 × 2.1 mm, 1.7 µm, 35 °C, 0.3 mL/min, estimated dead time 0.73 min; A: water + 0.1% formic acid, pH 3; B: methanol; gradient (min/%B) 0/10 1.6/10 2/20 6/70 7/70 14/90 17.5/90 18/95 21/95
[6] = RP, Waters ACQUITY UPLC BEH C18, 100 × 2.1 mm, 1.7 µm, 35 °C, 0.3 mL/min, estimated dead time 0.73 min; A: water + 0.1% formic acid, pH 3; B: methanol; gradient (min/%B) 0/0 1.6/0 2/20 6/70 7/70 14/90 17.5/90 18/95 21/95

Row | SMILES | LC retention time [1] [min] | LC retention time [2] [min] | LC retention time [3] [min] | also measured
1 | COC1C(O)C(CO)OC1n1ccc(=O)[nH]c1=O (configuration not stated) [2'-O-methyluridine] | 4.79 |  |  | 
2 | COC1C(c2c[nH]c(=O)[nH]c2=O)OC(CO)C1O (configuration not stated) [2'-O-methylpseudouridine] | 4.95 |  |  | 
3 | NC(Cc1ccccc1)C(=O)O (configuration not stated) [Phenylalanine] |  |  |  | LC retention time [4]: 2 min
4 | CC(C)CC(NC(=O)C(C)O)C(=O)O (configuration not stated) [N-lactoyl-leucine] |  |  |  | LC retention time [4]: 5 min
5 | CC(C)CC(N)C(=O)O (configuration not stated) [Leucine] |  |  |  | LC retention time [5]: 1.62 min
6 | CCCC(=O)OC(CC(=O)[O-])C[N+](C)(C)C (configuration not stated) [Butyrylcarnitine] |  |  |  | LC retention time [5]: 2.75 min
7 | COC1C(O)C(CO)OC1n1cnc2c(N)ncnc21 (configuration not stated) [2'-O-methyladenosine] | 5.78 |  |  | 
8 | CCC(=O)OC(CC(=O)[O-])C[N+](C)(C)C (configuration not stated) [carnitine-C3] |  | 6.36 | 7.17 | 
9 | Nc1ccn(C2OC(CO)C(O)C2O)c(=O)n1 (configuration not stated) [cytidine] | 0.92 |  |  | 
10 | CC(=O)NC(Cc1ccccc1)C(=O)O (configuration not stated) [N-acetylphenylalanine] |  |  |  | LC retention time [4]: 5 min
11 | Nc1nc2c(ncn2C2OC(CO)C(O)C2O)c(=O)[nH]1 (configuration not stated) [guanosine] | 4.08 |  |  | 
12 | NC(CCC(=O)NC(CS)C(=O)NCC(=O)O)C(=O)O (configuration not stated) [Glutathione] |  |  |  | LC retention time [5]: 1 min; LC retention time [6]: 2 min
13 | NC(CCC(=O)NC(CSSCC(NC(=O)CCC(N)C(=O)O)C(=O)NCC(=O)O)C(=O)NCC(=O)O)C(=O)O (configuration not stated) [Oxidized glutathione] |  |  |  | LC retention time [5]: 1.04 min; LC retention time [6]: 3 min
14 | CC(O)C(=O)O (configuration not stated) [Lactic acid] |  |  |  | LC retention time [5]: 1.11 min
15 | NC(CCC(=O)NC(CSCO)C(=O)NCC(=O)O)C(=O)O (stereo not drawn) [S-(Hydroxymethyl)glutathione] |  |  |  | LC retention time [6]: 1.7 min
16 | Nc1ncnc2c1ncn2C1OC(CO)C(O)C1O (configuration not stated) [adenosine] | 4.57 |  |  | 
17 | COC1C(O)C(CO)OC1n1cnc2c(=O)[nH]c(N)nc21 (configuration not stated) [2'-O-methylguanosine] | 5.34 |  |  | 
18 | O=c1ccn(C2OC(CO)C(O)C2O)c(=O)[nH]1 (configuration not stated) [uridine] | 2.04 |  |  | 

Continued, in another order:

Row | LC retention time [1] [min] | LC retention time [2] [min] | LC retention time [3] [min] | SMILES | also measured
19 |  | 9.06 | 10 | O=C(O)CCC(=O)O [Succinic Acid] | 
20 |  | 12.5 | 13.8 | C=C(OP(=O)(O)O)C(=O)O [PEP] | 
21 |  | 9.62 | 10.7 | O=C(CO)COP(=O)(O)O [Triose phosphate] | 
22 |  | 8.97 | 10 | O=C(O)CCC(O)C(=O)O (configuration not stated) [2-hydroxy glutaric acid] | 
23 |  | 12.9 | 14.1 | O=C(O)CC(O)(CC(=O)O)C(=O)O [Citric acid] | 
24 |  | 12.6 | 13.9 | O=C(O)CC(C(=O)O)C(O)C(=O)O (configuration not stated) [Isocitric acid] | 
25 |  | 8.54 | 9.47 | O=C(O)CCC(=O)C(=O)O [2-Oxoglutaric acid] | 
26 |  | 11.6 | 12.9 | O=C(O)C(CO)OP(=O)(O)O (configuration not stated) [Phosphoglyceric acid A] | 
